Assay results reported in patent EP0189629A1, “Method of treatment of viral diseases in plants utilizing ribavirin” (VIRATEK, INC., priority 1985, dated 1986).

Key:
[1] = system: lily symptomless virus (LSV) and tulip breaking virus (TBV); test: Lily meristem culture, virus testing by ELISA, immuno-diffusion drop test and electron microscopy; type: cell-based; conditions: 40.0 uM Ribavirin
Procedure: Other experiments were performed with Lilium Lon- oifiorum "Arai" which has been described as difficult to obtain free of virus, and with Lilium"Enchantment", both containing lily symptomless virus (LSV) and tulip breaking virus (TBV). Meristems, induced on media with or without Ribavirin, were isolated and subsequently cultured on a medium without Ribavirin. […] Leaf samples of the plants were tested for the presence of LSV and TBV by means of ELISA, the immuno-diffusion drop test and electron microscopy.

potato virus Y = test: In vitro culture of meristems and other explants of potato virus Y-infected potato; type: cell-based
Procedure: (§1) Although the proportion of healthy plants obtained by this technique is usually high, it requires complex media and the rate of regrowth of meristematic explants is low. Menstems were cultured on MURASHIGE and SKOOG medium- supplanted with vitamin 85, and with growth substances. Other explants (shoots, fragment of shoots, stem--fragments) were grown on MURASHIGE and SKOOG medium without addition of growth substances. The presence of potato virus Y in plant material was controlled before and after in vitro culture, by biological indexing on tobacco test plants, or by serology (ELISA). Results thus obtained confirmed the elimination of potato virus Y from infected plants by meristem culture. […] Cymbidium protocorms infected with odontoglossum ring spot virus were placed for proliferation on liquid KNUDSON C medium containing 0, 10, 25 or 40 ppm of Ribavirin.

[2] = system: Odontoglossum ring spot virus (ORSV); test: ORSV-infected Cymbidium meristem/protocorm culture, ELISA; type: cell-based
Procedure: Odontoglossum ring spot virus (ORSV) - infected Cymbidium mother plants have been regenerated in the presence of Ribavirin. Meristems or protocorms of Cymbidium were cultured on liquid or solid (0.7% agar) KNUDSON C medium, as modified for orchids by MOREL.
as §1

Solubility = type: physicochemical; conditions: for solubility in other solvents: alcohol (5-15% by volume) and water, DMF (5-25%) and water, DMSO (5-25%) and water, DMSO alone
Text: Another potential use of Ribavirin is to eliminate viruses or maintain plant tissues in a virus-free state during routine propagation techniques that are presently being developed. One example is the use of encapsulated somatic embryos to propagate somatic tissues to prevent sexual variation or the need for more extensive plant breeding. Ribavirin may be especially useful in maintaining virus-free plants by its application to somatic embryos. Certain plants can be propagated asexually precluding genetic changes in progeny which might otherwise occur by sexual propagation from seed. Treatment of somatic embryos with Ribavirin prior to encapsulation will preserve plant progeny in a virus--free state. The compound could also be used in combination with newly developed plant genetic engineering procedures where the Ribavirin could be incorporated into normal propagation procedures. […] The compounds are also soluble in solutions of alcohol (5-15% by volume) and water, dimethylformamide (DMF) (5-25%) and water, dimethyl sulfoxide (DMSO) (5-25%) and water and dimethyl sulfoxide alone.

[3] = system: orchid strain of tobacco mosaic virus (TMV-0); test: Cymbidium orchid tissue culture, virus titers by electron micrography and serological test; type: cell-based; conditions: 30, 100, 300 and 1,000 ppm Ribavirin; 200 ppm DMSO in all treatments
Procedure: Ribavirin concentrations from 30 to 1,000 ppm have been included in tissue culture media in which orchids are being cloned, and used to drench and spray whole orchid plants in a controlled way. Virus titers were determined by transmission electron micrography and ELIZA serological tests. In order to enhance penetration of Ribavirin, 200 ppm of Dimethylsulfoxide - (DMSO) was included in all treatments including controls.

Lilium = test: Lily meristem culture, meristem formation and bulb growth; type: cell-based
TMV [4] = test: TMV multiplication in inoculated unorganized callus cells; type: cell-based; conditions: callus cells inoculated with TMV, single agent
TMV [5] = test: TMV-infected tobacco callus growth and shoot regeneration on medium containing chemical; type: cell-based
[6] = system: protocorms of healthy Cymbidium; test: Growth of healthy Cymbidium protocorms on medium containing Ribavirin; type: cell-based
Procedure: Meristems or protocorms of Cymbidium were cultured on liquid or solid (0.7% agar) KNUDSON C medium, as modified for orchids by MOREL.

TMV [7] = test: TMV multiplication in leaf cells, treatment soon after inoculation; type: cell-based; conditions: treatment began soon after inoculation
plant virus groups = test: Spectrum of activity against plant virus groups and plant viral diseases

Which “percentage of plants infected with LSV and/or TBV” value ([1]; L. "Enchantment") does the source give for `NC(=O)c1ncn([C@@H]2O[C@H](CO)[C@@H](O)[C@H]2O)n1` [Ribavirin, 1-β-D-ribofuranosyl-1,2,4-triazole-3-carboxamide] here?
Its value is “the effect is less clear”.

And the “percentage of plants infected with LSV and/or TBV” value ([1]; L. Lonaiflorum "Arai")?
Its value is “reduced”.

And the “regeneration rate in meristem culture” value (potato virus Y; 10, 25 and 50 ppm, meristems of potato virus Y-infected potato)?
Its value is “enhanced the regeneration rate”.

And the “number of virus-free plants obtained after in vitro culture” value (potato virus Y; 25 or 50 ppm, shoots, shoot pieces and stem-fragments, three to four weeks)?
The value was “significantly enhanced”.

What about the “phytotoxicity in meristem culture” value (potato virus Y; virus-inhibiting concentrations, meristem culture of potato virus Y-infected potato) of the same compound?
Its value is “phytotoxicity at virus-inhibiting concentrations”.

And the “multiplication of ORSV in Cymbidium protocorms” value ([2]; 10 ppm, liquid KNUDSON C medium, three monthly subcultures)?
The value was “did not inhibit”.

And the “virus concentration in Cymbidium protocorms” value ([2]; 25 ppm, liquid KNUDSON C medium, monthly subcultures)?
Its value is “decreased progressively”.

And the “ORSV detection by ELISA test” value ([2]; from the sixth subculture, regeneration in the presence of Ribavirin)?
The value was “no longer detectible”.

And the “solubility in other solvents” value (Solubility)?
The value was “also soluble”.

And the solubility in water (Solubility)?
The solubility in water was “soluble in water”.

What about the “virus status of new growth of Cymbidium tissue cultures” value [3] of the same compound?
The value was “developed virus-free new growth”.

And the bulb growth (Lilium; 400.0 uM)?
Its bulb growth is “severely reduced”.

And the “number of adventitiously formed meristems and average bulb weight” value (Lilium; concentration range 0.0-40.0 uM)?
Its value is “not significantly influenced”.

And the “multiplication of TMV in unorganized callus cells” value (TMV [4])?
Its value is “neither inhibited”.

And the “TMV in newly developed tobacco callus or shoots” value (TMV [5]; callus from TMV-infected pith tissue grown on medium with Ribavirin)?
The value was “still contained TMV”.

What about the “tobacco callus growth and differentiation” value (TMV [5]; concentration twice that required to inhibit TMV multiplication in leaf disks) of the same compound?
The value was “grew and differentiated”.

And the “growth of healthy Cymbidium protocorms” value ([6]; 50 ppm, after four weeks of culture)?
Its value is “became necrotic”.

And the “growth of healthy Cymbidium protocorms” value ([6]; media containing 0, 10 or 25 ppm)?
Its value is “grew well”.

What about the “multiplication of TMV in leaf cells” value (TMV [7]) of the same compound?
The value was “effectively inhibited”.

And the “effectiveness against plant viral diseases” value (plant virus groups; crops and viruses listed in the 2nd table and the 3rd table)?
The value was “effective”.

What about the “activity against plant virus groups” value (plant virus groups; potexviruses, potyviruses, closteroviruses, tymoviruses, carlaviruses, cucumoviruses, ilarviruses, tombusviruses, tomato spotted wilt virus, alfalfa mosaic virus) of the same compound?
The value was “active”.

And the “sensitivity of plant virus groups to Ribavirin” value (plant virus groups; tobamovirus and bromovirus groups)?
Its value is “only slightly sensitive”.

Which “multiplication of TMV in unorganized callus cells” value (TMV [4]) does the source give for `Nc1ncnc2c1ncn2[C@@H]1O[C@H](CO)[C@@H](O)[C@@H]1O` [Adenine Arabinoside] here?
Its value is “neither inhibited”.

And the “multiplication of TMV in leaf cells” value (TMV [7])?
The value was “effectively inhibited”.

With `CC(=O)OC[C@H]1O[C@@H](n2cnc(C(N)=O)n2)[C@H](OC(C)=O)[C@@H]1OC(C)=O` [2,3,5--triacetyl] as the compound, how does the “solubility in other solvents” value (Solubility) read?
Its value is “also soluble”.

What about the solubility in water (Solubility) of the same compound?
Its solubility in water is “soluble in water”.

Which “solubility in other solvents” value (Solubility) does the source give for `CCCC(=O)OC[C@H]1O[C@@H](n2cnc(C(N)=O)n2)[C@H](O)[C@@H]1O` [5'-butyryl] here?
Its value is “also soluble”.

And the solubility in water (Solubility)?
Its solubility in water is “soluble in water”.
